From PubChem BioAssay AID330 (DTP/NCI, 2004)
Several values for one entry are separate records, joined by “and”; a condition that tells them apart may be missing. Identical values can stand only once. Inconclusive results and toxic doses are left out. How the source made its calls: active means survival T/C of 150% or more; inactive means T/C below 125% in these data.

Tested on: P388 leukemia ip, CD2F1 mice, survival T/C
Test: NCI In Vivo Anticancer Drug Screen. Data for tumor model P388 Leukemia (intraperitoneal) in CD2F1 (CDF1) mice
Settings: endpoint: median survival time, higher = longer survival
Method in brief: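 Mice carrying the transplanted tumor received test compound or vehicle. Survival was recorded in each group, and the value is the treated-group measurement divided by that of the vehicle-treated control group.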

[1] = dose: 50.0 mg/kg/injection, schedule: Q01DX009 (ip), vehicle: saline with Tween-80
[2] = dose: 100.0 mg/kg/injection, schedule: Q01DX009 (ip), vehicle: saline with Tween-80

Measured: T/C

O=NN(CCCl)C(=O)Nc1c[nH]c(=O)[nH]c1=O
inactive: dose: 0.01 mg/kg/injection, schedule: Q04DX003 (ip), vehicle: saline with Tween-80 95 % of control | dose: 0.02 mg/kg/injection, schedule: Q04DX003 (ip), vehicle: saline with Tween-80 100 % of control | dose: 0.04 mg/kg/injection, schedule: Q04DX003 (ip), vehicle: saline with Tween-80 100 % of control | dose: 12.5 mg/kg/injection, schedule: Q01DX009 (ip), vehicle: saline with Tween-80 109 % of control | dose: 30.0 mg/kg/injection, schedule: Q01DX009 (ip), vehicle: saline with Tween-80 100 % of control
active: dose: 0.5 mg/kg/injection, schedule: Q04DX003 (ip), vehicle: saline 150 % of control | dose: 1.0 mg/kg/injection, schedule: Q04DX003 (ip), vehicle: saline 159 % of control | dose: 2.0 mg/kg/injection, schedule: Q04DX003 (ip), vehicle: saline 172 % of control | dose: 3.0 mg/kg/injection, schedule: Q04DX003 (ip), vehicle: saline with Tween-80 195 % of control | dose: 3.13 mg/kg/injection, schedule: Q01DX009 (ip), vehicle: saline with Tween-80 227 % of control | dose: 6.0 mg/kg/injection, schedule: Q04DX003 (ip), vehicle: saline with Tween-80 213 % of control | dose: 6.25 mg/kg/injection, schedule: Q01DX009 (ip), vehicle: saline with Tween-80 227 % of control | dose: 8.0 mg/kg/injection, schedule: Q04DX003 (ip), vehicle: saline with Tween-80 191 % of control | dose: 12.0 mg/kg/injection, schedule: Q04DX003 (ip), vehicle: saline with Tween-80 166 % of control | dose: 12.5 mg/kg/injection, schedule: Q04DX003 (ip), vehicle: saline with Tween-80 219 % of control | dose: 18.0 mg/kg/injection, schedule: Q04DX003 (ip), vehicle: saline with Tween-80 191 % of control

CSc1c2c(c(C)c3c1[nH]c1ccccc13)C=NCC2
inactive: dose: 6.25 mg/kg/injection, schedule: Q04DX002 (ip), vehicle: distilled water + Tween-80 102 % of control | dose: 12.5 mg/kg/injection, schedule: Q04DX002 (ip), vehicle: distilled water + Tween-80 89 % of control | dose: 25.0 mg/kg/injection, schedule: Q04DX002 (ip), vehicle: distilled water + Tween-80 98 % of control | dose: 50.0 mg/kg/injection, schedule: Q04DX002 (ip), vehicle: distilled water + Tween-80 88 % of control | dose: 100.0 mg/kg/injection, schedule: Q04DX002 (ip), vehicle: distilled water + Tween-80 88 % of control

COc1ccc(-c2cc(=O)c3c(O)cc(O)cc3o2)cc1
inactive: [1] 90 % of control | [2] 90 % of control | dose: 100.0 mg/kg/injection, schedule: Q04DX003 (ip), vehicle: saline with Tween-80 90 % of control | dose: 200.0 mg/kg/injection, schedule: Q01DX009 (ip), vehicle: saline with Tween-80 110 % of control | dose: 200.0 mg/kg/injection, schedule: Q04DX003 (ip), vehicle: saline with Tween-80 90 % of control

O=C(O)CC1SC2(C(=O)N(Cc3ccccc3)c3ccccc32)N(c2ccccc2)C1=O (configuration not stated)
inactive: dose: 50.0 mg/kg/injection, schedule: Q01DX005 (ip), vehicle: saline with Tween-80 89 % of control | dose: 100.0 mg/kg/injection, schedule: Q01DX005 (ip), vehicle: saline with Tween-80 95 % of control | dose: 200.0 mg/kg/injection, schedule: Q01DX005 (ip), vehicle: saline with Tween-80 89 % of control

CCOC(=O)c1[nH]c2c(cc(C=O)c3ccccc32)c1C
inactive: dose: 100.0 mg/kg/injection, schedule: Q01DX001 (ip), vehicle: saline with Tween-80 92 % of control | dose: 200.0 mg/kg/injection, schedule: Q01DX001 (ip), vehicle: saline with Tween-80 91 % of control | dose: 400.0 mg/kg/injection, schedule: Q01DX001 (ip), vehicle: saline with Tween-80 90 % of control

O=C1C=C(N2CCOCC2)C(=O)C=C1N1CCOCC1
inactive: dose: 50.0 mg/kg/injection, schedule: Q01DX005 (ip), vehicle: Klucel (hydroxypropylcellulose) (HPC) 90 % of control | dose: 100.0 mg/kg/injection, schedule: Q01DX005 (ip), vehicle: Klucel (hydroxypropylcellulose) (HPC) 98 % of control | dose: 200.0 mg/kg/injection, schedule: Q01DX005 (ip), vehicle: Klucel (hydroxypropylcellulose) (HPC) 92 % of control

COc1ccc(-c2cn(-c3ccccc3)c3ncnc(N)c23)cc1
inactive: dose: 60.0 mg/kg/injection, schedule: Q01DX005 (ip), vehicle: saline with Tween-80 102 % of control | dose: 120.0 mg/kg/injection, schedule: Q01DX005 (ip), vehicle: saline with Tween-80 103 % of control | dose: 240.0 mg/kg/injection, schedule: Q01DX005 (ip), vehicle: saline with Tween-80 103 % of control

NC1=NC(=O)N2CC12 (configuration not stated)
active: dose: 100.0 mg/kg/injection, schedule: Q01DX009 (ip), vehicle: saline 153 % of control and 158 % of control
inactive: dose: 50.0 mg/kg/injection, schedule: Q01DX009 (ip), vehicle: saline 122 % of control | dose: 200.0 mg/kg/injection, schedule: Q01DX009 (ip), vehicle: saline 100 % of control

Cc1ccc(S(=O)(=O)NN=c2c3ccccc3ccc3ccccc23)cc1
inactive: dose: 100.0 mg/kg/injection, schedule: Q04DX002 (ip), vehicle: Klucel (hydroxypropylcellulose) (HPC) 94 % of control | dose: 200.0 mg/kg/injection, schedule: Q04DX002 (ip), vehicle: Klucel (hydroxypropylcellulose) (HPC) 91 % of control | dose: 400.0 mg/kg/injection, schedule: Q04DX002 (ip), vehicle: Klucel (hydroxypropylcellulose) (HPC) 90 % of control

CCOC(=O)c1c[nH]c(=S)n(CCOC)c1=O
inactive: dose: 25.0 mg/kg/injection, schedule: Q01DX009 (ip), vehicle: saline with Tween-80 92 % of control | [1] 108 % of control | [2] 115 % of control
